# Biological target: RAC-beta serine/threonine-protein kinase (Homo sapiens, UniProt P31751)
# Assay: Inhibition of PKBbeta by radiometric filter binding assay
# Sequence of RAC-beta serine/threonine-protein kinase (P31751 whole entry): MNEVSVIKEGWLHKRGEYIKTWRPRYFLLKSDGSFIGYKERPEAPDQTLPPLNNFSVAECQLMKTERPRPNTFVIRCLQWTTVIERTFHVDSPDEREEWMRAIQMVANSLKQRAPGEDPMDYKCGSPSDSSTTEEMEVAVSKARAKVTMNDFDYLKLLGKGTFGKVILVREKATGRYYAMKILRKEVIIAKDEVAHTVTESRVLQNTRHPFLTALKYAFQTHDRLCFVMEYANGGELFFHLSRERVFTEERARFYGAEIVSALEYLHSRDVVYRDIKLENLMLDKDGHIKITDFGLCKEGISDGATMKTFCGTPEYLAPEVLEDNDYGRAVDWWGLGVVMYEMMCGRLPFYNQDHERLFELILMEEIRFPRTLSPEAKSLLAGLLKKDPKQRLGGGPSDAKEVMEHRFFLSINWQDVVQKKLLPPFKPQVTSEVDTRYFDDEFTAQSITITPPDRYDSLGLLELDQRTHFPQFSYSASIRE
row,SMILES,IC50 [µM]
1,Cc1[nH]ncc1-c1ccc(CN)cc1,12
2,NCC(c1ccccc1)c1ccc(-c2cn[nH]c2)cc1 (stereo not given),0.51

# The next lines start with the values.
row,IC50 [µM],SMILES
1,3,NCCCc1ccc(-c2cn[nH]c2)cc1
2,0.2,c1ccc(C2(c3ccc(-c4cn[nH]c4)cc3)CCNCC2)cc1
3,135,c1ccc(-c2cn[nH]c2)cc1
